One block for each substance: values may come before it.
Experiments:
[1] = target: IL-15Rα:Fc; assay: SPR (BIAcore), IL-15Rα:Fc captured by immobilised goat anti-human Fc, KD from kd/ka
[2] = target: IL-15Rα:Fc; assay: SPR (BIAcore), IL-15Rα:Fc captured by immobilised goat anti-human Fc, test article injected in 3-fold dilutions from 10 µM
[3] = target: IL-15Rα:Fc; assay: SPR (BIAcore), compared with unmodified IL-15
[4] = system: CT-26 cells; assay: CT-26 lung metastasis model
[5] = Single dose PK study in mice (plasma concentration); settings: C57BL/6 mice, single i.v. 0.3 mg/kg
[6] = Single dose PK study in rats (plasma concentration); type: in vivo; settings: rats, single i.v. 0.3, 0.15, 0.075 mg/kg or s.c. 0.15 mg/kg
Procedure: Following administration, blood was collected at days 1-7 post administration (with multiple samples collected over the first 24 hours following administration). […]

[7] = system: CD4, CD8, and NK cells; assay: In vivo IL-15 signaling (STAT5 phosphorylation in lymphocytes) in non-human primates; design: species or system cynomolgus monkeys; settings: cyno, single i.v. 0.5 mg/kg
Procedure: In the study, cynomolgus monkeys (cyno), one female and one male, were each intravenously administered a single dose of Conjugate 2 (0.5 mg/kg). A series of blood samples were taken from each animal both prior to treatment (day-6 and-1) and at multiple intervals following treatment for assessment by flow cytometry of STAT5 phosphorylation in various types of lymphocytes (CD4, CD8, and NK cells). Results are provided in FIGS. 9A (CD4), 9B (CD8), and 9C (NK).
(§1) Cynomolgus monkeys (n=3-4 males), were administered a single intravenous injection of Conjugate 1 at 0.003, 0.01, 0.1 mg/kg or a vehicle control. Blood samples were collected at the indicated time points pre and post dose (−5, −2, 1, 2, 3, 4, 5, 6, 7, 10, 14, 17 days) and subjected to flow cytometric analysis to examine pharmacodynamic effects within lymphocyte populations. Proliferation (% Ki-67) and JAK/STAT signaling (% pSTAT5) for NK cells, CD8 T cells, and CD4 T cells were examined, with the results shown in FIGS. 45A-C and FIGS. 46A-C, respectively.

[8] = system: CD8 T cells; assay: Immunophenotypic markers in blood and spleen on Day 13 of the CT-26 lung metastasis study; type: in vivo, Balb/c mice
Procedure: Blood and spleenocytes were analyzed on Day 13 for the changes in the immunophenotypic markers using flow cytometry and marker antibodies conjugated with various fluorochromes. Conjugate 2 administered at 0.3, 1, and 3 mg/kg induced a dose-dependent increase of CD8 T cells 1.5, 2.5, and 3.3-fold versus vehicle in blood, respectively. Similar observations were made in spleen with increases of 1.3, 1.7, and 2.2-fold at 0.3, 1, and 3 mg/kg dose levels versus vehicle.

[9] = system: CD4, CD8, and NK cells; assay: In vivo IL-15 signaling (STAT5 phosphorylation in lymphocytes) in mice; settings: C57BL/6 mice, single i.v. 0.3 mg/kg
Text: Conventional approaches, such as those involving radiolabeling a compound, administering the compound in vivo, and determining its clearance, can be used to assess whether a compound proposed to be a long-acting, IL-15 R agonist is “long-acting” (i.e., has a clearance that is longer than that of IL-15 administered in the same in vivo system). For the purposes herein, the long acting nature of a long-acting IL-15 R agonist may be, and is typically determined using flow cytometry to measure STAT5 phosphorylation in lymphocytes at various time points after administration of the agonist to be evaluated in mice. As a reference, the signal is lost by around 24 hours with IL-15, but is sustained for a period greater than that for a long-acting IL-15 agonist.
Mice were dosed as described in Example 6 above to assess in-vivo signaling as assessed by degree of STAT5 phosphorylation. Degree of STAT5 phosphorylation in various lymphocytes (CD4, CD8, and NK cells) was assessed by staining whole blood for leukocyte surface markers and pSTAT5, followed by measurement by flow cytometry. Results are shown in FIGS. 8A and 8 B for IL-15 and for Conjugate 2, respectively.
[PK methods previously described herein].
STAT5 phosphorylation in CD4 T cells was determined by using a CD3+CD4+CD8-pSTAT5+ marker combination. FIG. 43 is a plot of pSTAT5 phosphorylation percent positivity within CD4 T cells over time (at 0.25, 1, 6, 24, 48, 72, 96 and 120 hours post administration) at a dose of 0.03 mg/kg (blue, solid squares) or 0.3 mg/kg (orange, solid circles). The vehicle over time (black) and pre-dose (open circles) levels are also shown.

[10] = system: NK cells, CD8 T cells, CD4 T cells; assay: In vivo PD study in non-human primates: lymphocyte cell numbers and proliferation; design: species or system cynomolgus monkeys; settings: cyno, single i.v. 500 μg/kg
Procedure: In the study, cynomolgus monkeys, one female and one male, were administered 500 μg/kg of Conjugate 2 intravenously. A series of blood samples were taken from each animal before treatment (day-6 and -1) and at multiple intervals following single dose treatment for assessment by flow cytometry of lymphocyte cell numbers (NK cells, CD8 T-cells, etc.) and activation.
NK cell counts were determined to assess the ability of exemplary Conjugate 2 to induce sustained NK cell proliferation in non-human primates; results are shown in FIGS. 16A and 16B. NK cells and their proliferation in blood from cynomolgus monkey were identified by flow cytometry. Acquisition and analysis of NK cells (CD45+ CD3− CD16+) and their proliferation status (CD45+CD3−CD16+ Ki67+) were conducted using BD FACS DIVA software. Absolute values for NK cells and proliferating NK cells were used to calculate % Ki67 positivity within the NK population. Pre and post-treatment values were plotted using Prism.
CD8 T cell counts were also determined as illustrated in FIG. 17 for each animal from pre-dose to 14 days post-administration. Specifically, CD8 T cells were defined as CD45+CD3+CD4−CD8+. Blood from the monkeys was also subject to immunophenotyping as previously described. In monkey, CD8 T cells increased in a sustained manner, an effect lasting for at least 10 days. This plot further exemplifies the ability of an exemplary long acting IL-15 receptor agonist, Conjugate 2, to induce proliferation and sustained increases in numbers of CD8 T-cells post-administration.
In monkey, CD8 TEM cells were defined as CD45+CD3+CD4−CD8+CD45Ra−CD197− and CD8 Tcm were defined as CD45+CD3+CD4−CD8+CD45Ra−CD197+. Immunophenotyping was conducted by flow cytometry with sample acquisition on DIVA software and data analysis on Flowjo software. Graphs were plotted using Prism. […] The figures indicate that both CD8 effector and central memory T cell populations proliferate in response to exemplary Conjugate 2.
In this study, cynomolgus monkeys (cyno), one female and one male, were each intravenously administered a single dose of Conjugate 1 (0.1 mg/kg). A series of blood samples were taken from each animal over a 14-day time course and subjected to flow cytometry analysis of various lymphocytes (CD8 T cells, Ki-67 percent positivity within total CD8, CD8 central memory T cells (TCM) and CD8 effector memory T cells (Tem), NK cells and Ki-67 percent positivity of NK cells).
as §1
In cynomolgus monkey, CD8 naïve and memory subpopulations were defined by CD45Ra, CD197 and CD95. […] Within the CD8 Tem, […] and Tscm populations, Conjugate 1 induced robust % Ki-67 expression in a dose dependent manner with detectable increases in proliferation marker positivity starting as early as day 2, reaching a maximum at day 5 and returning to baseline between days 10-14. The Ki-67 expression and kinetics within the CD8 populations support the sustained increase in CD8 T cell numbers shown in Example 27 and FIGS. 47A-D.

Sequence of IL-15Rα:Fc (Q13261 31-205): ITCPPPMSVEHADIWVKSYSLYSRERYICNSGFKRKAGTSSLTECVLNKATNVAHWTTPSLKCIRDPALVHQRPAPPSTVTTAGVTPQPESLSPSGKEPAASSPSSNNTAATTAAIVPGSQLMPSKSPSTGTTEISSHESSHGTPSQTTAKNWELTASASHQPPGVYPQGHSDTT

Kd [1]: 0.209 nM
koff [2]: 0.000103 s⁻¹
kon [2]: 492000 M⁻¹ s⁻¹
percent of the alpha receptor affinity of IL-15 retained [3]: 80%
Substance: mono-mPEG-SBA40K-IL-15 (Conjugate 1) (from UniProt P40933 49-162) (ligand)

Substance: N-(2-methoxyPEG-ethyl)-7-(4-((2-methoxyPEG-ethyl) amino)-4-oxobutyl)-9-ethyl-9 H-fluorene-4-carboxamide carbamate-IL-15 [Conjugate 2]
efficacy (lung nodule inhibition) after NK cell depletion ([4]; 0.3 mg/kg days 1, 5, 10, anti-asialo GM1): abolished when mice lacked NK cells
reduction in lung metastases in comparison to vehicle ([4]; Example 13, i.v. days 1, 5, 10, dose not stated): 65%
T1/2 [5]: 20 to 30 h
time with measurable concentrations in plasma [5]: greater than 1 week
exposure to drug [6]: sustained and dose-proportional exposure to drug
return of STAT5 phosphorylation to near pre-dose levels [7]: 5 to 10 days
increase of Bcl-2+MFI in CD8 ([8]; blood and spleen): ≤ 1.5 fold
increase of CD8 T cells versus vehicle ([8]; blood, 0.3 mg/kg): 1.5 fold
increase of CD8 T cells versus vehicle ([8]; blood, 1 mg/kg): 2.5 fold
increase of CD8 T cells versus vehicle ([8]; blood, 3 mg/kg): 3.3 fold
CD8 T cell proliferation (Ki-67) change compared to vehicle ([8]; blood, high dose 3 mg/kg): 5.3 fold
CD8 T cell proliferation (Ki-67) change compared to vehicle ([8]; blood, low dose 0.3 mg/kg): 1.7 fold
increase of CD8 T cells versus vehicle ([8]; spleen, 0.3 mg/kg): 1.3 fold
increase of CD8 T cells versus vehicle ([8]; spleen, 1 mg/kg): 1.7 fold
increase of CD8 T cells versus vehicle ([8]; spleen, 3 mg/kg): 2.2 fold
CD8 T cell proliferation (Ki-67) change compared to vehicle ([8]; spleen, high dose 3 mg/kg): 6.9 fold
CD8 T cell proliferation (Ki-67) change compared to vehicle ([8]; spleen, low dose 0.3 mg/kg): 2.5 fold
CD8 T cell proliferation (Ki-67) change compared to vehicle ([8]; spleen, mid dose 1 mg/kg): 5.7 fold
duration of in-vivo STAT5 phosphorylation activity in NK and CD8 cells [9]: > 72 h
CD8 TEM and TCM cell counts [10]: induces a significant and sustained increase in CD8 effector and central memory T cell populations
NK cell proliferation (Ki67, cell counts) [10]: effective to induce sustained NK cell proliferation
duration of CD8 T cell increase [10]: at least 10 days
